The subject of data set [1] is developing neurons (LUHMES d2-3). Kind of data set: Toxicological testing with developing neurons in the LUHMES d2-3 assay. It is filed as cell-based. Conditions: 0-100 μM tested. Here is the method:
Example 14: Toxicological Testing with Developing Neurons in the LUHMES d2-3 Assay
Compounds 3, 5, and 10 were toxicologically tested with developing neurons in the LUHMES d2-3 assay at concentrations varying from 0 to 100 μM (cf. FIGS. 4 to 6). […] In the case of compound 5 (cf. FIG. 5), general cytotoxicity (orange line) and inhibition of neurite outgrowth each started above 40 μM (green line). For compound 10 (cf. FIG. 6), general cytotoxicity (orange line) started at 80 μM and inhibition of neurite outgrowth started at 40 μM (green line).

For data set [2], the system named is human embryonic kidney cell line HEK-293. Kind of data set: Toxicological testing, viability by resazurin reduction after 24 h. Particulars: HEK-293, 0-100 μM tested. In kind it is cell-based. As for the experimental part:
Example 13: Toxicological Testing with Human Embryonic Kidney Cell Line HEK-293
Compounds 3, 5, and 10 were toxicologically tested with human embryonic kidney cell line HEK-293 at concentrations varying from 0 to 100 μM (cf. FIGS. 1 to 3). The viability was measured by resazurin reduction after 24 h.
For orientation: The colour change of resazurin is a common sign of viable cells or microbes.

The subject of the next data set is S. aureus USA 300 (MRSA). In words: Minimum inhibitory concentration (MIC), 96-well plates, serial dilutions in LB medium. It is filed as cell-based. Particulars: Staphylococcus aureus, read-out: Minimum inhibitory concentration (MIC). An excerpt: (§1) Example 12: Determination of the Minimum Inhibitory Concentration (MIC) with Non-Pathogenic E. coli and B. subtilis and/or Pathogenic Strains of S. aureus Including Three MRSA Strains (USA 300, Mu50 and DSM18827) as Well as the Pathogenic Fungus Candida albicans
(§2) Minimum inhibitory concentrations (MIC) for compounds 1 to 11 with non-pathogenic E. coli and B. subtilis and/or pathogenic strains of S. aureus including three MRSA strains (USA 300, Mu50 and DSM18827) as well as the pathogenic fungus Candida albicans were determined in 96-well plates with serial dilutions in LB medium.
Example 21: Determination of the Minimum Inhibitory Concentration (MIC) for the Compounds Represented by the Formulas (14) and (16) with the Pathogenic USA 300 (MRSA) Strain of S. aureus
Minimum inhibitory concentrations (MIC) for the compounds represented by the Formulas (14) and (16) with the pathogenic MRSA strains of S. aureus USA 300 were determined in 96-well plates with serial dilutions in LB medium.

The next data set relates to S. aureus NCTC 8325. The data set is described as above. In kind it is cell-based. Particulars: Staphylococcus aureus.
Source text: as §1, §2

A further data set has as its system E. coli K12. The data set is described as above. In kind it is cell-based. Particulars: Escherichia coli.
Source text: as §1, §2

For a further data set, the system named is S. aureus Mu50 (MRSA). Described as above. It is filed as cell-based. Conditions: Staphylococcus aureus, read-out: Minimum inhibitory concentration (MIC).
Source text: as §1, §2

The next data set relates to Candida albicans. Described as above. It is filed as cell-based. Particulars: read-out: Minimum inhibitory concentration (MIC).
Source text: as §1, §2

In another data set the test system is B. subtilis. The data set is described as above. It is filed as cell-based. Conditions: Bacillus subtilis, read-out: Minimum inhibitory concentration (MIC).
Source text: as §1, §2

Data set [3] deals with S. aureus DSM18827 (MRSA). The data set is described as above. In kind it is cell-based. Conditions: Staphylococcus aureus, DSM 11827 / DSM 18827 / MRSA, read-out: Minimum inhibitory concentration (MIC).
Source text: as §1, §2

Data set [4] deals with elastase (LasB) (Pseudomonas aeruginosa, UniProt P14756). In words: In vitro elastase assay with fluorogenic substrate Abz-peptide-Nba. It is filed as biochemical, P. aeruginosa. Here is the method:
Example 16: In Vitro Inhibition of Elastase (LasB) with Compounds 6, 7, and 12
An in-vitro elastase assay was performed according to Cathcart et al. (G. R. Cathcart, B. F. Gilmore, B. Greer, P. Harriott, B. Walker, Bioorganic & medicinal chemistry letters 2009, 19, 6230-6232). For a typical in vitro elastase assay 82 μL buffer (0.05 M TRIS HCl, 2.5 mM CaCl2, pH=7.2) and 5 μL of compound 6 solved in DMSO were added in a 96 well plate. 10 μL of 3 μg/mL elastase (solved in the same Tris/CaCl2 buffer) were added and mixed with the compound. After incubation for 10 min at room temperature, 3 μL fluorogenic substrate Abz-peptide-Nba (2-aminobenzoyl-Ala-Gly-Leu-Ala-4-nitrobenzylamide) in DMF were added and the fluorescence measured for 90 min in one minute steps (excitation at 330 nm, emission at 460 nm). The slope of the resulting graph was used to calculate the enzymatic activity.

For data set [5], the target named is T1, elastase (LasB) (Pseudomonas aeruginosa, UniProt Q02RJ6).
T1 construct: 1.4 mL of the culture was centrifuged and the supernatant filtered through a sterile filter; endogenous in cells; host or cells: P. aeruginosa PA14 culture (supernatant)
T1 sequence (Q02RJ6 198-498): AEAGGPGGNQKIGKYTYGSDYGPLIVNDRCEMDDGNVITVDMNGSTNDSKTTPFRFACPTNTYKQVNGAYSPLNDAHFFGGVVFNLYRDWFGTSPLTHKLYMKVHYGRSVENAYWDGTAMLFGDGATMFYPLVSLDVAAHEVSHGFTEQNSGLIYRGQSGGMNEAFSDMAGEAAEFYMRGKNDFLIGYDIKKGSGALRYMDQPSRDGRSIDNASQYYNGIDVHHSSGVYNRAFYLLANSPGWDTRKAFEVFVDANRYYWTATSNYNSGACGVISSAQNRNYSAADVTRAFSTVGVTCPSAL
Kind of data set: In situ inhibition of elastolytic activity (Elastin-Congo Red) with life cultures of P. aeruginosa PA14. In kind it is cell-based. Here is the method:
Example 17: In Situ Inhibition of Elastase (LasB) with Compound 6
The in situ efficacy of Compound 6 was investigated by measuring the concentration dependent inhibition of elastolytic activity with life cultures of P. aeruginosa. The elastase assay was performed according to Calfee et al. (M. W. Calfee, J. P. Coleman, E. C. Pesci, Proceedings of the National Academy of Sciences of the United States of America 2001, 98, 11633-11637.) 10 μL of an overnight culture of PA14 was added to 3 mL of PTSB medium together with 15 μL of Compound 6 dissolved in DMSO at different stock concentrations. The culture was incubated for 24 h at 37° C. and 200 rpm. 1.4 mL of the culture was centrifuged and the supernatant filtered through a sterile filter. Thereafter, 0.5 mL ECR-buffer (0.1 M Tris HCl, 1 mM CaCl2, pH=7.2) together with 10 mg Elastin-Congo Red was added to 0.5 ml of the sterile flow-through and the mixture incubated for 3 h at 37° C. and 1600 rpm. After the incubation, 0.1 mL Na2EDTA (0.12 M) was added to quench the enzymatic reaction. After mixing, the solution was centrifuged (10 min at 6000 rpm) and 0.2 mL of the supernatant measured at 495 nm in a 96 well plate. It was observed that Compound 6 is an efficient inhibitor of elastolytic activity in situ resulting in sigmoidal inhibition behaviour with an IC50 of 40 μM (cf. FIG. 9).

We go through 2 compounds from US10961196B2, “Compounds for use as an anti-bacterial or anti-fungal agent and as a zinc sensor” (UNIVERSITÄT KONSTANZ, priority 2016, dated 2021).

The IC50 is the point on the concentration scale where inhibition reaches its midpoint. Read a high IC50 as lower potency.

“And” between values parts separate entries of the source, which are not always exact repeats. Equal entries are not always repeated. Where two headings read alike, the source gives them in different places.

Sequence of elastase (LasB) (Pseudomonas aeruginosa, UniProt P14756) (P14756 198-498): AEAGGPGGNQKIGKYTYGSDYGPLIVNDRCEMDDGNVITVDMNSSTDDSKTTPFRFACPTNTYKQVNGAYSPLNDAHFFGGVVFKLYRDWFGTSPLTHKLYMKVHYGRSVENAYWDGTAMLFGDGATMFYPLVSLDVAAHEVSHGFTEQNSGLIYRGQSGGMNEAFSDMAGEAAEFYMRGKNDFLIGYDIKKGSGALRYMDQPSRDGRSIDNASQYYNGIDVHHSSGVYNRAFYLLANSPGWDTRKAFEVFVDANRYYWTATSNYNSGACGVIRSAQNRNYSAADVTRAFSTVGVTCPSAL

Regarding `CCCCCCCc1c/c(=N/O)c2ccccc2[nH]1` [Compound 3, 2-heptylquinolin-4(1H)-one oxime], the “Concentration at which general cytotoxicity starts” value in [1] is on record as “above 10 μM”. In addition, the “Concentration at which inhibition of neurite outgrowth starts” value in data set [1] is on record as “above 2.5 μM”. In [2], the “Concentration at which cell toxicity starts” value came out at 40 µM. Moreover, the MIC in the data set with S. aureus USA 300 (MRSA) is 60 µM and 15.5 µg/mL; in the data set on S. aureus NCTC 8325 (NCTC8325, read-out: Minimum inhibitory concentration (MIC)) it was 60 µM and 15.5 µg/mL; against E. coli K12, 300 µM and 78 µg/mL; in the data set on S. aureus Mu50 (MRSA) (MRSA) it was 60 µM and 15.5 µg/mL; in the data set on Candida albicans, 100 µM and 25.8 µg/mL; with B. subtilis, 50 µM and 12.9 µg/mL. For the same compound, in data set [3], the MIC was 60 µM and 15.5 µg/mL.
On to `CCCCCCCc1[nH]c2ccccc2c(=S)c1O` [Compound 6, 2-heptyl-3-hydroxyquinoline-4(1H)-thione], for which the 50% inhibitory concentration (IC50) stood at 4 µM against elastase (LasB) [4] and 40 µM on elastase (LasB) [5]. In addition, the MIC is 150 µM and 41.3 µg/mL in the data set on S. aureus USA 300 (MRSA) (S. aureus USA 300 (MRSA), LB medium); 100 µM and 27.5 µg/mL in the data set with S. aureus NCTC 8325 (NCTC8325, S. aureus NCTC 8325, LB medium, read-out: Minimum inhibitory concentration (MIC)); 150 µM and 41.3 µg/mL in the data set with S. aureus Mu50 (MRSA) (S. aureus Mu50 (MRSA), LB medium); 100 µM and 27.5 µg/mL with Candida albicans (C. albicans, LB medium); 125 µM and 34.4 µg/mL in the data set with B. subtilis (B. subtilis, LB medium); 150 µM and 41.3 µg/mL in data set [3] (S. aureus DSM18827 (also printed DSM11827), MRSA, LB medium).
